Data published in US11052087B2, “Anti-HIV compounds” (priority 2018, dated 2021).
Converted amounts (≈) assume the structure as drawn. Counter-ions that a name gives are not always drawn. Like-named read-outs stand apart in the source and are kept apart here.

Experiments:
[1] = Kinetic Solubility Analysis (CLND); assay type: physicochemical; conditions: 26 °C, kinetic from dmso stock
Experimental: Kinetic Solubility Analysis (CLND) Buffer Preparation:
0.1N HCl: Hydrochloric acid, 0.1N standardized solution.
1×PBS, 7.4: Phosphate Buffered Saline solution 10×, PBS 50 mL was added to approximately 450 mL HPLC grade H2O. The volume of the solution was then adjusted to 500 mL for a total dilution factor of 1:10 and a final PBS concentration of IX.
Kinetic Solubility from DMSO Stocks:
The final DMSO concentration is 1.0% and maximum theoretical compound concentration is 100 μM (assuming stock concentration of 10 mM). The filter plate was sealed. […] The collection plate was sealed for analysis. Filtrates were injected into the nitrogen detector for quantification.
The equimolar nitrogen response of the detector was calibrated using standards which spanned the dynamic range of the instrument from […] nitrogen. The filtrates were quantified with respect to this calibration curve. The calculated solubility values were corrected for background nitrogen present in the DMSO and the media used to prepare the samples.

in vivo = conditions: beagle, dog, po
Experimental: Pharmacokinetic Profiling Dog PK
(§6) Compound 11 was formulated in a suspension formulation (1% HPMC and 0.05% Tween 20 in DI Water) and administered orally at 10 mg-eq/kg to a dosing group consisting of three non-naïve male beagle dogs. At dosing, the animals weighed between 9 to 12 kg. The animals were fasted overnight prior to dose administration and up to four hours after dosing. Serial venous blood samples (approximately 1.0 mL each) were obtained at pre-dose, 0.25, 0.50, 1, 2, 4, 6, 8, 12, and 24 hours post-dose. The blood samples were collected into Vacutainer™ tubes containing EDTA-K2 as the anti-coagulant and were immediately placed on wet ice pending centrifugation for plasma. An LC/MS/MS method was used to measure the concentration of compound 11 and compound D in plasma. […] In a second experiment, compound D was dosed orally as a suspension using the same formulation and dose level.

[2] = system: HIV-1 (IIIB) in MT-4 cells; assay: MT-4 HIV Assay; assay type: cell-based
Experimental: Compounds were tested in a high-throughput 384-well assay format for their ability to inhibit the replication of HIV-1 (IIIB) in MT-4 cells. Compounds were serially diluted (1:3) in DMSO on 384-well polypropylene plates and further diluted 200-fold into complete RPMI media (10% FBS, 1% P/S) using the Biotek Micro Flow and Agilent ECHO acoustic dispenser. Each plate contained up to 8 test compounds, with negative (No Drug Control) and 5 μM AZT positive controls. MT-4 cells were pre-infected with 10 μL of either RPMI (mock-infected) or a fresh 1:250 dilution of an HIV-1 (IIIB) concentrated virus stock. Infected and uninfected MT-4 cells were further diluted in complete RPMI media and added to each plate using a Micro Flow dispenser. After 5 days incubation in a humidified and temperature controlled incubator (37° C.), Cell Titer Glo (Promega) was added to the assay plates to quantify the amount of luciferase. EC50 values were defined as the compound concentration that causes a 50% decrease in luminescence signal, and were calculated using a sigmoidal dose-response model to generate curve fits.

[3] = Liver microsomal stability (rat); assay type: in vitro ADME; conditions: rat liver microsomes 0.5 mg/mL, 1 μM compound, NADPH-regenerating system, 37° C.
Experimental: (§1) Liver Microsomal Stability Protocol
(§2) Test compounds and one control compound (verapamil) were tested in 3 different species in duplicate sets.
(§3) Test compound concentration: 1 μM; Protein concentration: 0.5 mg/mL (for rat and human liver microsomes); Cofactor: NADPH-Regenerating system (NRS) solution. Time-points: 2, 12, 25, 45, and 65 minutes.
(§4) Reaction composition (in each incubation well) contains:
(§5) At an incubation temperature of 37° C., the reaction was started with addition of NADPH Regeneration System, at each time point, 25 μL of the reaction mixture was removed and added to a plate with 225 μL quenching solution (50% MeOH, 25% ACN, 25% H2O, and 200 nM labetalol as internal standard). After plates were vortexed, they were centrifuged for 30 minutes to remove proteins. About 100 μL supernatant was removed to a new plate and diluted with 150 μL water. About 20 μL of the mixture was injected into an LC/MS/MS system to monitor the compound's response. In vitro measured t1/2 was used to calculate Clint values.

[4] = Liver microsomal stability (human); assay type: in vitro ADME; conditions: human liver microsomes 0.5 mg/mL, 1 μM compound, NADPH-regenerating system, 37° C.
Experimental: as §1, §2, §3, §4, §5

[5] = male, beagle, dog, in vivo
Experimental: Pharmacokinetic Profiling Dog PK
as §6

Rat PK = assay type: in vivo; conditions: compound 14 oral solution, 75 mg-eq/kg dose group, male SD rats, LC/MS/MS
Experimental: Compound 14 was formulated in a solution formulation (84% 10 mM HCl; 15% 2-Hydroxypropyl-β-Cyclodextrin; 1% Dimethyl sulfoxide pH 2.0) and administered orally at 2.5 and 75 mg-eq/kg to a dosing groups consisting of three male SD rats. At dosing, the animals weighed between 270 and 350 g. […] Trace amounts of compound 14 were detected in plasma in the 75 mg-eq/kg dose group.

[6] = 0.1N HCl, pH 1, simulated gastric fluid, read-out: Solubility, HCl, pH 1.0, RT
[7] = PBS, pH 7.4, aqueous buffer, read-out: Solubility, PBS, pH 7.4, RT
[8] = Human immunodeficiency virus 1, MT4, 120 h, HIV-1 (IIIB) replication in MT-4 cells, 5 days incubation, Cell Titer Glo, read-out: EC50

| SMILES | solubility at 24 h [1, 6] | solubility at 24 h [1, 7] | bioavailability (in vivo) | EC50 [2, 8] | Rat. Pred. Cl. (L/H/kg) [3] | Human Pred Cl. (L/H/kg) [4] | bioavailability of compound D [5] | EC50 ([2]; Human immunodeficiency virus 1, IIIB, MT4, 120 h) | concentration of compound 14 in plasma (Rat PK) |
| --- | --- | --- | --- | --- | --- | --- | --- | --- | --- |
| COC(=O)N[C@H](C(=O)N[C@@H](Cc1ccc(C#Cc2cnc(N3CC4CCC(C3)N4C3COC3)nc2)cc1)[C@@H](O)CN(Cc1c(F)cc(-c2ccn(C(F)F)n2)cc1F)NC(=O)[C@@H](NC(=O)OC)C(C)(C)C(F)(F)F)C(C)(C)C(F)(F)F [Compound D, methyl ((5S,8S,9S,14S)-11-(4-(1-(difluoromethyl)-1H-pyrazol-3-yl)-2,6-difluorobenzyl)-16,16,16-trifluoro-9-hydroxy-15,15-dimethyl-8-(4-((2-(8-(oxetan-3-yl)-3,8-diazabicyclo[3.2.1]octan-3-yl)pyrimidin-5-yl)ethynyl)benzyl)-3,6,13-trioxo-5-(1,1,1-trifluoro-2-methylpropan-2-yl)-2-oxa-4,7,11,12-tetraazahexadecan-14-yl)carbamate, reference compound] | 19.5 µM (≈ 22.5 µg/mL) | < 1 µM | 2.6 ± 1.1% | – | – | – | – | – | – |
| COC(=O)N[C@H](C(=O)N[C@@H](Cc1ccc(C#Cc2cnc(N3CC4CCC(C3)N4C3COC3)nc2)cc1)[C@H](CN(Cc1c(F)cc(-c2ccn(C(F)F)n2)cc1F)NC(=O)[C@@H](NC(=O)OC)C(C)(C)C(F)(F)F)OC=O)C(C)(C)C(F)(F)F [Example 1, (5S,10S,11S,14S)-8-(4-(1-(difluoromethyl)-1H-pyrazol-3-yl)-2,6-difluorobenzyl)-11-(4-((2-(8-(oxetan-3-yl)-3,8-diazabicyclo[3.2.1]octan-3-yl)pyrimidin-5-yl)ethynyl)benzyl)-3,6,13,16-tetraoxo-5,14-bis(1,1,1-trifluoro-2-methylpropan-2-yl)-2,17-dioxa-4,7,8,12,15-pentaazaoctadecan-10-yl formate] | 20 µM | < 1 µM | – | 0.00462 µM | <0.4 L/H/kg | 0.37 L/H/kg | – | – | – |
| COC(=O)N[C@H](C(=O)N[C@@H](Cc1ccc(C#Cc2cnc(N3CC4CCC(C3)N4C3COC3)nc2)cc1)[C@H](CN(Cc1c(F)cc(-c2ccn(C(F)F)n2)cc1F)NC(=O)[C@@H](NC(=O)OC)C(C)(C)C(F)(F)F)OC(=O)CCCN1CCOCC1)C(C)(C)C(F)(F)F [Example 2, (5S,10S,11S,14S)-8-(4-(1-(difluoromethyl)-1H-pyrazol-3-yl)-2,6-difluorobenzyl)-11-(4-((2-(8-(oxetan-3-yl)-3,8-diazabicyclo[3.2.1]octan-3-yl)pyrimidin-5-yl)ethynyl)benzyl)-3,6,13,16-tetraoxo-5,14-bis(1,1,1-trifluoro-2-methylpropan-2-yl)-2,17-dioxa-4,7,8,12,15-pentaazaoctadecan-10-yl 4-morpholinobutanoate] | 81 µM (≈ 106 µg/mL) | < 1 µM | – | 0.0566 µM | 0.84 L/H/kg | 0.53 L/H/kg | – | – | – |
| COC(=O)N[C@H](C(=O)N[C@@H](Cc1ccc(C#Cc2cnc(N3CC4CCC(C3)N4C3COC3)nc2)cc1)[C@H](CN(Cc1c(F)cc(-c2ccn(C(F)F)n2)cc1F)NC(=O)[C@@H](NC(=O)OC)C(C)(C)C(F)(F)F)OC(=O)c1cccnc1)C(C)(C)C(F)(F)F [Example 5, (5S,10S,11S,14S)-8-(4-(1-(difluoromethyl)-1H-pyrazol-3-yl)-2,6-difluorobenzyl)-11-(4-((2-(8-(oxetan-3-yl)-3,8-diazabicyclo[3.2.1]octan-3-yl)pyrimidin-5-yl)ethynyl)benzyl)-3,6,13,16-tetraoxo-5,14-bis(1,1,1-trifluoro-2-methylpropan-2-yl)-2,17-dioxa-4,7,8,12,15-pentaazaoctadecan-10-yl nicotinate] | 89.2 µM (≈ 112 µg/mL) | < 1 µM | – | 1.14 µM | 0.58 L/H/kg | 0.28 L/H/kg | – | – | – |
| COC(=O)N[C@H](C(=O)N[C@@H](Cc1ccc(C#Cc2cnc(N3CC4CCC(C3)N4C3COC3)nc2)cc1)[C@H](CN(Cc1c(F)cc(-c2ccn(C(F)F)n2)cc1F)NC(=O)[C@@H](NC(=O)OC)C(C)(C)C(F)(F)F)OC(=O)c1ccccn1)C(C)(C)C(F)(F)F [Example 6, (5S,10S,11S,14S)-8-(4-(1-(difluoromethyl)-1H-pyrazol-3-yl)-2,6-difluorobenzyl)-11-(4-((2-(8-(oxetan-3-yl)-3,8-diazabicyclo[3.2.1]octan-3-yl)pyrimidin-5-yl)ethynyl)benzyl)-3,6,13,16-tetraoxo-5,14-bis(1,1,1-trifluoro-2-methylpropan-2-yl)-2,17-dioxa-4,7,8,12,15-pentaazaoctadecan-10-yl picolinate] | 38.5 µM (≈ 48.6 µg/mL) | < 1 µM | – | 0.278 µM | <0.4 L/H/kg | 0.29 L/H/kg | – | – | – |
| COC(=O)N[C@H](C(=O)N[C@@H](Cc1ccc(C#Cc2cnc(N3CC4CCC(C3)N4C3COC3)nc2)cc1)[C@H](CN(Cc1c(F)cc(-c2ccn(C(F)F)n2)cc1F)NC(=O)[C@@H](NC(=O)OC)C(C)(C)C(F)(F)F)OC(=O)OCOP(=O)(O)O)C(C)(C)C(F)(F)F [Example 11, methyl ((5S,10S,11S,14S)-8-(4-(1-(difluoromethyl)-1H-pyrazol-3-yl)-2,6-difluorobenzyl)-16,16,16-trifluoro-15,15-dimethyl-11-(4-((2-(8-(oxetan-3-yl)-3,8-diazabicyclo[3.2.1]octan-3-yl)pyrimidin-5-yl)ethynyl)benzyl)-3,6,13-trioxo-10-((((phosphonooxy)methoxy)carbonyl)oxy)-5-(1,1,1-trifluoro-2-methylpropan-2-yl)-2-oxa-4,7,8,12-tetraazahexadecan-14-yl)carbamate] | – | – | – | – | – | – | 5.5±2.6% | – | – |
| COC(=O)N[C@H](C(=O)N[C@@H](Cc1ccc(C#Cc2cnc(N3CC4CCC(C3)N4C3COC3)nc2)cc1)[C@H](CN(Cc1c(F)cc(-c2ccn(C(F)F)n2)cc1F)NC(=O)[C@@H](NC(=O)OC)C(C)(C)C(F)(F)F)OC(=O)CN(C)C(=O)[C@@H](N)Cc1ccccc1)C(C)(C)C(F)(F)F [Example 14, (2S,3S)-1-(1-(4-(1-(difluoromethyl)-1H-pyrazol-3-yl)-2,6-difluorobenzyl)-2-((S)-4,4,4-trifluoro-2-((methoxycarbonyl)amino)-3,3-dimethylbutanoyl)hydrazinyl)-4-(4-((2-(8-(oxetan-3-yl)-3,8-diazabicyclo[3.2.1]octan-3-yl)pyrimidin-5-yl)ethynyl)phenyl)-3-((S)-4,4,4-trifluoro-2-((methoxycarbonyl)amino)-3,3-dimethylbutanamido)butan-2-yl N-(L-phenylalanyl)-N-methylglycinate] | – | – | – | – | – | – | – | 0.00654 µM | Trace amounts |
